Measured values taken from ChEMBL document CHEMBL4622954, “Structural manipulation of aporphines via C10 nitrogenation leads to the identification of new 5-HT7AR ligands” (Bioorg Med Chem, 2020).
Counter-ions that a name gives are not always drawn.

Legend:
[1] = biological target: T1, 5-hydroxytryptamine receptor 6 (Homo sapiens, UniProt P50406)
[2] = biological target: 5-hydroxytryptamine receptor 2A (Homo sapiens, UniProt P28223);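 also: [3H]-Ketanserin displacement from the 5-HT2A receptor after 90 min incubation, with bound label read by MicroBeta counting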
5-hydroxytryptamine receptor 2A, sequence (P28223 whole entry): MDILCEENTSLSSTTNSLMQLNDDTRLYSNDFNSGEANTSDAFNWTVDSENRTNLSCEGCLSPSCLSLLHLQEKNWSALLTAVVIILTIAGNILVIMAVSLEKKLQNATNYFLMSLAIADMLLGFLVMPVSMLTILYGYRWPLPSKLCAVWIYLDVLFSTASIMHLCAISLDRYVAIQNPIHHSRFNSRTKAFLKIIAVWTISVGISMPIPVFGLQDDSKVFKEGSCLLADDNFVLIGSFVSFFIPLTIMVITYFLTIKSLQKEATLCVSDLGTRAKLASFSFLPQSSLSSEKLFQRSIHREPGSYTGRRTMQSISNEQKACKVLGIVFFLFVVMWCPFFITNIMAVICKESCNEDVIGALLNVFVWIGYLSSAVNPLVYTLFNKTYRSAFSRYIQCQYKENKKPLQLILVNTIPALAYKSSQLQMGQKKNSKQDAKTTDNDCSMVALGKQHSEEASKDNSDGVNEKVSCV
Description: Displacement of [3H]-Ketanserin from 5-HT2A receptor (unknown origin) incubated for 90 mins by microbeta counting method

[3] = biological target: T1, 5-hydroxytryptamine receptor 6; assay: Displacement of [3H]-LSD from human 5-HT6 receptor expresssed in stable HEK cell membrane incubated for 90 mins by microbeta counting method
[4] = biological target: T2, 5-hydroxytryptamine receptor 1A (Homo sapiens, UniProt P08908); assay: biochemical
T2 sequence (P08908 whole entry): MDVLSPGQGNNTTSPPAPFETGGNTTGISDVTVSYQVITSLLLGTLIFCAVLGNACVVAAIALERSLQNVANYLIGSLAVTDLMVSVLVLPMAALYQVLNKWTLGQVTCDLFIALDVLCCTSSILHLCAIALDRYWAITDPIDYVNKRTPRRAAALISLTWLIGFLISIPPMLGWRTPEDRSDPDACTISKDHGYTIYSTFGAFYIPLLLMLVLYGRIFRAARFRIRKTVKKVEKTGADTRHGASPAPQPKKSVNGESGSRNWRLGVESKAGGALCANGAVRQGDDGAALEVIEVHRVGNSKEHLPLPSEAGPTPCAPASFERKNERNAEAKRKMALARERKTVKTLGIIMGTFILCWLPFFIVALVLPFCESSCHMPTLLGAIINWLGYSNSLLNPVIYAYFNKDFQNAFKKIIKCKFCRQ

[5] = biological target: T3, 5-hydroxytryptamine receptor 7 (Homo sapiens, UniProt P34969); assay: biochemical
T3 sequence (P34969 whole entry): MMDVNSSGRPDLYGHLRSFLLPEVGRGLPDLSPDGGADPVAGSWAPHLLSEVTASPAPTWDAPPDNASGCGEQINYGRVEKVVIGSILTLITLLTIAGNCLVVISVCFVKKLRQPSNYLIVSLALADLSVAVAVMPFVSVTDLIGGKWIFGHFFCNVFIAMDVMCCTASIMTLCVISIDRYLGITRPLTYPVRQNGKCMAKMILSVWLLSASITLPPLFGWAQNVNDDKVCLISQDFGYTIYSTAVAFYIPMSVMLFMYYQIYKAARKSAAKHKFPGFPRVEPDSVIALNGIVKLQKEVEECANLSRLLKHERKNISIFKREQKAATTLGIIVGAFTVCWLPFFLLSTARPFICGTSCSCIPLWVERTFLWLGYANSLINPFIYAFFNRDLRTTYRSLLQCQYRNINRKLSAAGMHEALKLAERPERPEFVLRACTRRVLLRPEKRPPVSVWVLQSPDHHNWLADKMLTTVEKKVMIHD
Description: (§2) Displacement of [3H]-LSD from human 5-HT7A receptor expresssed in stable HEK cell membrane incubated for 90 mins by microbeta counting method

[6] = biological target: T1, 5-hydroxytryptamine receptor 6; assay: biochemical
D(1A) dopamine receptor [7] = biological target: T4, D(1A) dopamine receptor (Homo sapiens, UniProt P21728)
T4 sequence (P21728 whole entry): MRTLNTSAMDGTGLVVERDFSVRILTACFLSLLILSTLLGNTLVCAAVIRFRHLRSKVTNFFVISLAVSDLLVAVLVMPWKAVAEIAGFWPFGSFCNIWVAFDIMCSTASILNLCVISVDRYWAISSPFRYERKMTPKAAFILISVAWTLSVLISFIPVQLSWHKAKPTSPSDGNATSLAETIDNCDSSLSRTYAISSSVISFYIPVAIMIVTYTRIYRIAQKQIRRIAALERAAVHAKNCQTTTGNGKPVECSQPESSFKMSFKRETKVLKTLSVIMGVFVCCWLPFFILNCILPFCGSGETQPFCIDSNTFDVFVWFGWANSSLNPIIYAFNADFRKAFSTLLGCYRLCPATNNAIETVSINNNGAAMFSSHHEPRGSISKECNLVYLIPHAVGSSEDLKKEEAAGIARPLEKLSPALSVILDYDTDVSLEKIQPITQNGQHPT

D(1A) dopamine receptor [8] = biological target: T4, D(1A) dopamine receptor; assay: Displacement of [3H]-SCH23390 from human dopamine D1 receptor expressed in HEKT cells incubated for 90 mins by microbeta counting method
D(3) dopamine receptor = D(3) dopamine receptor (Homo sapiens, UniProt P35462)
D(3) dopamine receptor, sequence (P35462 whole entry): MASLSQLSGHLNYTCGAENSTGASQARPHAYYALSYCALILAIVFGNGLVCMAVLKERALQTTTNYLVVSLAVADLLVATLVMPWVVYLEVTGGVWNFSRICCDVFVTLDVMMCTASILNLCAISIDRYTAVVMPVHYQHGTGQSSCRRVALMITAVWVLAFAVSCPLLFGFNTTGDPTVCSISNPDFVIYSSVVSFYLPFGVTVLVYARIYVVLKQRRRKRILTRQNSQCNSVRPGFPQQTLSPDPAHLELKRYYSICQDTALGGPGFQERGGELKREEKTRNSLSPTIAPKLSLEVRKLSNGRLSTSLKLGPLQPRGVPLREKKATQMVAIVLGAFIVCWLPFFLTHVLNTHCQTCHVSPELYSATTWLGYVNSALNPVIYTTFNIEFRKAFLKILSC
Description: Displacement of [3H]-N-Methylspiperone from dopamine D3 receptor (unknown origin) incubated for 90 mins by microbeta counting method

D(4) dopamine receptor = biological target: T5, D(4) dopamine receptor (Homo sapiens, UniProt P21917); assay: (§1) Displacement of [3H]-N-Methylspiperone from human dopamine D4 receptor expressed in stable HEK cells incubated for 90 mins by microbeta counting method; assay type: cell-based
T5 sequence (P21917 whole entry): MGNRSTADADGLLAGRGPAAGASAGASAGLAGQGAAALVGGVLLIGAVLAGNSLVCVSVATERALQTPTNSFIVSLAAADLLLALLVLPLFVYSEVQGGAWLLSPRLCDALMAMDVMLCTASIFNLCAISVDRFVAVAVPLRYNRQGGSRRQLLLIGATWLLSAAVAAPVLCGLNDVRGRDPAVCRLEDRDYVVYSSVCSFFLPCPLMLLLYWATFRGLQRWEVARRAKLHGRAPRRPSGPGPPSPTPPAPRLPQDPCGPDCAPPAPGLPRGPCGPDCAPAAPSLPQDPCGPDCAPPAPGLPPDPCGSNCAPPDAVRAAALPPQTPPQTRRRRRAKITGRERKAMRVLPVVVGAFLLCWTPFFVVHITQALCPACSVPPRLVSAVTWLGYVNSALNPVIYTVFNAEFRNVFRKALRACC

[9] = biological target: T6, D(4) dopamine receptor (Homo sapiens) (UniProt P21917); assay: as §1; assay type: cell-based
T6 sequence (whole entry): T5 sequence (P21917 whole entry)

D(2) dopamine receptor [10] = biological target: T7, D(2) dopamine receptor (Homo sapiens, UniProt P14416); conditions: fibroblast
T7 sequence (P14416 whole entry): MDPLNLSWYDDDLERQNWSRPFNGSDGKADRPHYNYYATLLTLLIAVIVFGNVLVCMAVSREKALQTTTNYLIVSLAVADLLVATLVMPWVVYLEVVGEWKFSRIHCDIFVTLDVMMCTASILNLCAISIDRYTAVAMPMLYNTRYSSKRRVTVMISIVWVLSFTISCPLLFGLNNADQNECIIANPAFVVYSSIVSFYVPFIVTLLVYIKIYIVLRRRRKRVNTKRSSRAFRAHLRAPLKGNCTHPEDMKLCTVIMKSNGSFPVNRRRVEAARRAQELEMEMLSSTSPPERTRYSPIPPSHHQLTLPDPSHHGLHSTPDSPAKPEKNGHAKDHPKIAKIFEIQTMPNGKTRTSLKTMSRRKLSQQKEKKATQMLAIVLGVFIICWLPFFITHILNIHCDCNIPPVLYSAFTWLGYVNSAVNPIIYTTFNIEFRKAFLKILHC

D(1B) dopamine receptor = D(1B) dopamine receptor (Homo sapiens, UniProt P21918); assay: Binding affinity to human dopamine D5 receptor expressed in HEKT cells incubated for 90 mins by microbeta counting method; assay type: cell-based
D(1B) dopamine receptor, sequence (P21918 whole entry): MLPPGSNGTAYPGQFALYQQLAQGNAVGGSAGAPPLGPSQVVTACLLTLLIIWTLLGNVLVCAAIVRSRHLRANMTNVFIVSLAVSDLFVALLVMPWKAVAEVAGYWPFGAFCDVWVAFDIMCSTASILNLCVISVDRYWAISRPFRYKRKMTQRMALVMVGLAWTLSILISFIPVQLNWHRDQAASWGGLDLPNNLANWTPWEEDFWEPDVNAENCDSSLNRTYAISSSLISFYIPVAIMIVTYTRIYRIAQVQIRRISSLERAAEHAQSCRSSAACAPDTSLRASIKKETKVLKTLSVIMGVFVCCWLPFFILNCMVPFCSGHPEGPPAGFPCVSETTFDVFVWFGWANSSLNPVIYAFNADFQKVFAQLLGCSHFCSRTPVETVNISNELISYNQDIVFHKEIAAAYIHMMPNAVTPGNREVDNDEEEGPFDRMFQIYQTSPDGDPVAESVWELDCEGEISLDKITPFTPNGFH

D(2) dopamine receptor [11] = biological target: T7, D(2) dopamine receptor; assay: Displacement of [3H]-N-Methylspiperone from human dopamine D2 receptor expressed in stable fibroblast cells incubated for 90 mins by microbeta counting method
Homo sapiens = species: Homo sapiens; assay: Selectivity index, ratio of Ki for human 5-HT7A receptor expressed in stable HEK cell membrane to Ki for human 5-HT1A receptor expresssed in stable CHO cell membrane incubated for 90 mins by microbeta counting method; assay type: cell-based
[12] = biological target: T8, 5-hydroxytryptamine receptor 1A (Homo sapiens) (UniProt P08908); conditions: CHO
T8 sequence (whole entry): T2 sequence (P08908 whole entry)

[13] = biological target: T2, 5-hydroxytryptamine receptor 1A; conditions: cho
[14] = biological target: T3, 5-hydroxytryptamine receptor 7
Description: as §2

[15] = biological target: T3, 5-hydroxytryptamine receptor 7; remark: listed apart in the source
Description: as §2

D(2) dopamine receptor [16] = biological target: T7, D(2) dopamine receptor; assay: biochemical
D(1A) dopamine receptor [17] = biological target: T4, D(1A) dopamine receptor; assay: biochemical
[18] = biological target: T3, 5-hydroxytryptamine receptor 7; assay: Antagonist activity at human recombinant 5-HT7 receptor expressed in CHOK1 Hunter cell preincubated for 30 mins followed by incubation with agonist for 30 to 60 mins by hit-hunter cAMP assay based chemiluminescence analysis; assay type: functional, CHO-K1

T1 sequence (P50406 whole entry): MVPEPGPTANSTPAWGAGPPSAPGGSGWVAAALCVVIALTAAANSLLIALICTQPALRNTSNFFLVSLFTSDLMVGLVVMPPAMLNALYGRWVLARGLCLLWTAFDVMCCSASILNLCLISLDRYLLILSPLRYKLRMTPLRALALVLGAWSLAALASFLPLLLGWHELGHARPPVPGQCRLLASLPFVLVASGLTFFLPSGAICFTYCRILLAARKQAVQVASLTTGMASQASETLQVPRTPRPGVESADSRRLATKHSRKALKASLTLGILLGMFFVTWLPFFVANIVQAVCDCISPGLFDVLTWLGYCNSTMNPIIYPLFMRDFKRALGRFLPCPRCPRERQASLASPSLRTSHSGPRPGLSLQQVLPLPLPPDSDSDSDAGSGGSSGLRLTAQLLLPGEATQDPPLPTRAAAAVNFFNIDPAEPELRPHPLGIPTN

Row | SMILES | Ki [1] | Ki [2] | inhibition [3] [%] | Ki [4] [nM] | Ki [5] [nM] | Ki [6] [nM] | Ki ([2]; read-out: Ki) [nM] | also measured
1 | CCCN1CCc2cccc3c2C1Cc1ccc(N)cc1-3 (stereo not given) | Not Active | Not Active | < 50 | 30 | 63 | – | – | –
2 | CCCN1CCc2cccc3c2C1Cc1cc2sc(N)nc2cc1-3 (racemic) | Not Active | Not Active | < 50 | 7.5 | 132 | – | – | Ki (D(1A) dopamine receptor [7]): Not Active; inhibition (D(1A) dopamine receptor [8]): < 50%; Ki (D(3) dopamine receptor): 2110 nM; Ki (D(4) dopamine receptor): Not Active; inhibition [9]: < 50%; Ki (D(2) dopamine receptor [10]): Not Active; Ki (D(1B) dopamine receptor): Not Active; inhibition (D(1B) dopamine receptor): < 50%; inhibition (D(2) dopamine receptor [11]): < 50%; Ratio Ki (Homo sapiens): 17
3 | COc1cc2c3c(c1OCC1CC1)-c1cc(NC(C)=O)ccc1CC3N(C)CC2 (racemic) | – | – | – | 1540 | 636 | 1500 | 974 | –
4 | CN1CCc2cccc3c2C1Cc1cc2sc(N)nc2cc1-3 (racemic) | Not Active | Not Active | – | 23 | – | – | – | Ki (D(1A) dopamine receptor [7]): Not Active; Ki (D(4) dopamine receptor): Not Active; Ki (D(2) dopamine receptor [10]): Not Active; Ki (D(1B) dopamine receptor): Not Active
5 | CCCN1CCc2cccc3c2C1Cc1ccc(N(C)C)cc1-3 (racemic) | Not Active | Not Active | < 50 | 256 | 984 | – | – | –
6 | COc1cc2c3c(c1OCC1CC1)-c1cc(NC(N)=O)ccc1CC3N(C)CC2 (racemic) | – | – | – | 1280 | 353 | 527 | 857 | –
7 | CN(C)c1ccc2c(c1)-c1cccc3c1C(C2)N(C)CC3 (racemic) | – | – | – | 458 | 17 | 1590 | 566 | –
8 | COc1cc2c3c(c1OCC1CC1)-c1cc(N)ccc1CC3N(C)CC2 (racemic) | – | – | – | – | 104 | 132 | 110 | inhibition [12]: < 50%; Ki [13]: Not Active
9 | CCCN1CCc2cccc3c2C1Cc1ccc(NC(N)=O)cc1-3 (racemic) | Not Active | Not Active | < 50 | 236 | – | – | – | inhibition [14]: < 50%; Ki [15]: Not Active
10 | C=CCOc1c(OC)cc2c3c1-c1cc(NC(=O)CCC)ccc1CC3N(C)CC2 (racemic) | – | – | – | 463 | 188 | 198 | 443 | –
11 | CN1CCc2cccc3c2C1Cc1ccc2nc(N)sc2c1-3 (racemic) | Not Active | – | < 50 | 187 | 9.9 | – | 1040 | Ki (D(2) dopamine receptor [16]): 1740 nM; Ki (D(3) dopamine receptor): 381 nM; Ki (D(4) dopamine receptor; read-out: Ki): 481 nM; Ki (D(1A) dopamine receptor [17]): 1150 nM; Ki (D(1B) dopamine receptor): Not Active; inhibition (D(1B) dopamine receptor): < 50%
12 | CCCN1CCc2cccc3c2C1Cc1ccc(NS(C)(=O)=O)cc1-3 (racemic) | Not Active | Not Active | < 50 | 23 | 199 | – | – | –
13 | COc1cc2c3c(c1OC)-c1cc(N(C)C)ccc1CC3N(C)CC2 (racemic) | – | – | – | 1570 | 73 | 127 | 295 | –
14 | C=CCOc1c(OC)cc2c3c1-c1cc(N(C)C)ccc1CC3N(C)CC2 (racemic) | – | – | – | – | 309 | 102 | 318 | inhibition [12]: < 50%; Ki [13]: Not Active
15 | COc1cc2c3c(c1OCC1CC1)-c1cc(N(C)C)ccc1CC3N(C)CC2 (racemic) | – | – | – | 1440 | 752 | 329 | 878 | –
16 | CN1CCc2cccc3c2C1Cc1ccc(NS(C)(=O)=O)cc1-3 (racemic) | Not Active | Not Active | < 50 | 133 | 27 | – | – | –
17 | CCCN1CCc2cccc3c2C1Cc1ccc2nc(N)sc2c1-3 (racemic) | Not Active | Not Active | < 50 | 93 | – | – | – | –
18 | CCCC(=O)Nc1ccc2c(c1)-c1c(OC)c(OC)cc3c1C(C2)N(C)CC3 (racemic) | – | – | – | 469 | 67 | 356 | 417 | –
19 | O=C(CCCN1CCC2(CC1)C(=O)NCN2c1ccccc1)c1ccc(F)cc1 [SPIPERONE HYDROCHLORIDE] | – | – | – | – | – | – | – | IC50 [18]: 310 nM

Continued, in another order:

Row | Ki [1] | Ki [2] | inhibition [3] [%] | Ki [4] [nM] | Ki [5] [nM] | Ki [6] [nM] | Ki ([2]; read-out: Ki) [nM] | SMILES | also measured
20 | – | – | – | 511 | 31 | 218 | 1330 | C#CCOc1c(OC)cc2c3c1-c1cc(NS(C)(=O)=O)ccc1CC3N(C)CC2 (racemic) | –
21 | – | Not Active | – | – | 289 | 415 | – | COc1cc2c3c(c1OC)-c1cc(NC(N)=O)ccc1CC3N(C)CC2 (racemic) | inhibition [12]: < 50%; Ki [13]: Not Active
22 | Not Active | Not Active | < 50 | 15 | 311 | – | – | CCCC(=O)Nc1ccc2c(c1)-c1cccc3c1C(C2)N(CCC)CC3 (racemic) | –
23 | Not Active | Not Active | – | 49 | – | – | – | CN1CCc2cccc3c2C1Cc1ccc(NC(N)=O)cc1-3 (racemic) | Ki (D(1A) dopamine receptor [7]): Not Active; Ki (D(3) dopamine receptor): 2460 nM; Ki (D(4) dopamine receptor): Not Active; Ki (D(2) dopamine receptor [10]): Not Active; Ki (D(1B) dopamine receptor): Not Active
24 | – | – | – | 661 | 455 | 354 | 1040 | C#CCOc1c(OC)cc2c3c1-c1cc(NC(=O)CCC)ccc1CC3N(C)CC2 (racemic) | –
25 | Not Active | Not Active | < 50 | 21 | – | – | – | CCCN1CCc2cccc3c2C1Cc1ccc(NC(C)=O)cc1-3 (racemic) | inhibition [14]: < 50%; Ki [15]: Not Active
26 | – | – | – | 385 | 114 | 505 | 433 | COc1cc2c3c(c1OCC1CC1)-c1cc(NS(C)(=O)=O)ccc1CC3N(C)CC2 (racemic) | –
27 | – | Not Active | – | 911 | 123 | 410 | – | C#CCOc1c(OC)cc2c3c1-c1cc(NC(N)=O)ccc1CC3N(C)CC2 (racemic) | –
28 | – | Not Active | – | – | 89 | 86 | – | COc1cc2c3c(c1OC)-c1cc(NS(C)(=O)=O)ccc1CC3N(C)CC2 (racemic) | inhibition [12]: < 50%; Ki [13]: Not Active
29 | – | – | – | 429 | 395 | 322 | 665 | CCCC(=O)Nc1ccc2c(c1)-c1c(OCC3CC3)c(OC)cc3c1C(C2)N(C)CC3 (racemic) | –
30 | – | – | – | 403 | 42 | 590 | 668 | C=CCOc1c(OC)cc2c3c1-c1cc(NS(C)(=O)=O)ccc1CC3N(C)CC2 (racemic) | –
